Assay results published in patent US10570122B2, “Compounds with anti-tumoral activity” (AB Science, priority 2015, dated 2020).
pIC50: −log10 of the molar value.

How the values were obtained:
HL60 = assay: CellTiter-Blue cell-based survival/proliferation assay, HL60; details: Homo sapiens, HL-60, Leukemia cell line HL60, 48 h, read-out: Anti-tumoral activity (measured IC50) HL60
Description: (§1) Cell-Based Proliferation Screening of Compounds
(§2) CellTiter-Blue cell-based survival/proliferation assay (Promega G8080) was performed on tumor cell lines. A total of 1·10^4 cells/well/50 μl were seeded in a 96-wells plate. Treatment was initiated by addition of a 2× drug solution of 1/10 serial dilutions ranging from 0 to 10 μM. Cells were grown for 48 h at 37° C. and then incubated with 10 μl/well of Promega CellTiter-Bleue reagent for 4 h at 37° C. The amount of resorufin dye formed was quantified by its fluorescence emission at 590 nm using a scanning multiwell spectrophotometer (OPTIMA, BMG labtech, France). A blank well without cells was used as a background control for the spectrophotometer.

HUT78 = assay: CellTiter-Blue cell-based survival/proliferation assay, HUT78; details: Homo sapiens, Lymphoma cell line HUT78, 48 h, read-out: Anti-tumoral activity (measured IC50) HUT78
Description: as §1, §2

KARPAS299 = assay: CellTiter-Blue cell-based survival/proliferation assay, KARPAS299; details: Homo sapiens, KARPAS-299, Lymphoma cell line KARPAS299, 48 h, read-out: Anti-tumoral activity (measured IC50) KARPAS299
Description: as §1, §2

REC1 = assay: CellTiter-Blue cell-based survival/proliferation assay, REC1; details: Homo sapiens, Lymphoma cell line REC1, 48 h, read-out: Anti-tumoral activity (measured IC50) REC1
Description: as §1, §2

OPM2 = assay: CellTiter-Blue cell-based survival/proliferation assay, OPM2; details: Homo sapiens, OPM-2, Myeloma cell line OPM2, 48 h, read-out: Anti-tumoral activity (measured IC50) OPM2
Description: as §1, §2

A498 = assay: CellTiter-Blue cell-based survival/proliferation assay, A498; details: Homo sapiens; A498 kidney tumor cell line, 48 h
Description: as §1, §2

A549 = assay: CellTiter-Blue cell-based survival/proliferation assay, A549; details: Homo sapiens; A549 lung tumor cell line, 48 h
Description: as §1, §2

ACHN = assay: CellTiter-Blue cell-based survival/proliferation assay, ACHN; details: Homo sapiens; ACHN kidney tumor cell line, 48 h
Description: as §1, §2

AGS = assay: CellTiter-Blue cell-based survival/proliferation assay, AGS; details: Homo sapiens; AGS stomach tumor cell line, 48 h
Description: as §1, §2

BT20 = assay: CellTiter-Blue cell-based survival/proliferation assay, BT20; details: Homo sapiens, BT-20; BT20 breast tumor cell line, 48 h
Description: as §1, §2

BXPC3 = assay: CellTiter-Blue cell-based survival/proliferation assay, BXPC3; details: Homo sapiens, BXPC-3; BXPC3 pancreas tumor cell line, 48 h
Description: as §1, §2

CALU6 = assay: CellTiter-Blue cell-based survival/proliferation assay, CALU6; details: Homo sapiens, Calu-6; CALU6 lung tumor cell line, 48 h
Description: as §1, §2

CLS354 = assay: CellTiter-Blue cell-based survival/proliferation assay, CLS354; details: Homo sapiens, CLS-354; CLS354_4 head & neck tumor cell line, 48 h
Description: as §1, §2

DLD1 = assay: CellTiter-Blue cell-based survival/proliferation assay, DLD1; details: Homo sapiens, DLD-1; DLD_1 colorectal tumor cell line, 48 h
Description: as §1, §2

DU145 = assay: CellTiter-Blue cell-based survival/proliferation assay, DU145; details: Homo sapiens, DU-145; DU145 prostate tumor cell line, 48 h
Description: as §1, §2

H1299 = assay: CellTiter-Blue cell-based survival/proliferation assay, H1299; details: Homo sapiens, NCI-H1299; H1299 lung tumor cell line, 48 h
Description: as §1, §2

HCT116 = assay: CellTiter-Blue cell-based survival/proliferation assay, HCT116; details: Homo sapiens, HCT-116; HCT116 colorectal tumor cell line, 48 h
Description: as §1, §2

HEP2 = assay: CellTiter-Blue cell-based survival/proliferation assay, HEP2; details: Homo sapiens, HEp-2; HEP2 head & neck tumor cell line, 48 h
Description: as §1, §2

HEPG2 = assay: CellTiter-Blue cell-based survival/proliferation assay, HEPG2; details: Homo sapiens; HEPG2 liver tumor cell line, 48 h
Description: as §1, §2

HGC27 = assay: CellTiter-Blue cell-based survival/proliferation assay, HGC27; details: Homo sapiens, HGC-27; HGC27 stomach tumor cell line, 48 h
Description: as §1, §2

MDAMB231 = assay: CellTiter-Blue cell-based survival/proliferation assay, MDAMB231; details: Homo sapiens, MDA-MB-231; MDAMB231 breast tumor cell line, 48 h
Description: as §1, §2

MESSA = assay: CellTiter-Blue cell-based survival/proliferation assay, MESSA; details: Homo sapiens, MES-SA; MESSA ovary tumor cell line, 48 h
Description: as §1, §2

PANC1 = assay: CellTiter-Blue cell-based survival/proliferation assay, PANC1; details: Homo sapiens, PANC-1; PANC_1 pancreas tumor cell line, 48 h
Description: as §1, §2

PC3 = assay: CellTiter-Blue cell-based survival/proliferation assay, PC3; details: Homo sapiens, PC-3; PC3 prostate tumor cell line, 48 h
Description: as §1, §2

PLCPRF5 = assay: CellTiter-Blue cell-based survival/proliferation assay, PLCPRF5; details: Homo sapiens, PLC-PRF-5; PLC_PRF5 liver tumor cell line, 48 h
Description: as §1, §2

SW579 = assay: CellTiter-Blue cell-based survival/proliferation assay, SW579; details: Homo sapiens; SW579 head & neck tumor cell line, 48 h
Description: as §1, §2

TOV112D = assay: CellTiter-Blue cell-based survival/proliferation assay, TOV112D; details: Homo sapiens; TOV112D ovary tumor cell line, 48 h
Description: as §1, §2

[1] = tested on: panel of about 34 human tumor cell lines; assay: Cell-based proliferation screening on panel of tumor cell lines; details: solid tumor cell line, cell line unknown, 48 h, read-out: IC50, solid tumor cell line of column 6 (last section of Table 3)
Description: Compounds of formula (I) were tested against a panel of about 34 human tumor cell lines representing 17 cancer type, namely leukemia (represented by 1 cell line), lymphoma (4 cell lines), myeloma (1 cell line), colorectal (2 cell lines), head and neck (3 cell lines), lung (3 cell lines), melanoma (2 cell lines), pancreas (2 cell lines), prostate (2 cell lines), ovary (2 cell lines) breast (2 cell lines), kidney (2 cell lines), stomach (2 cell lines), liver (2 cell lines), glioblastoma (2 cell lines), osteosarcoma (1 cell line), Ewing Sarcoma (1 cell line).
as §1, §2

Row | Structure (SMILES) | pIC50 (HL60) | pIC50 (OPM2) | pIC50 (A498) | pIC50 (A549) | pIC50 (ACHN) | pIC50 (AGS) | pIC50 (BT20) | pIC50 (BXPC3) | pIC50 (CALU6) | pIC50 (CLS354) | pIC50 (DLD1) | pIC50 (DU145) | pIC50 (H1299) | pIC50 (HCT116) | pIC50 (HEP2) | pIC50 (HEPG2) | pIC50 (HGC27) | pIC50 (MDAMB231) | pIC50 (MESSA) | pIC50 (PANC1) | also measured
1 | CC(=O)NCCOCc1ccc(C)c(Nc2ncc(-c3ccc(-n4cccn4)cc3)o2)c1 [Example 025, N-(2-{4-Methyl-3-[5-(4-pyrazol-1-yl-phenyl)-oxazol-2-ylamino]-benzyloxy}-ethyl)-acetamide] | < 6.00 | < 6.00 | < 6.00 | < 6.00 | < 6.00 | < 6.00 | < 6.00 | < 6.00 | < 6.00 | < 6.00 | < 6.00 | < 6.00 | < 6.00 | < 6.00 | < 6.00 | < 6.00 | < 6.00 | < 6.00 | < 6.00 | < 6.00 | pIC50 (HUT78): < 6.00; pIC50 (KARPAS299): < 6.00; pIC50 (REC1): < 6.00; pIC50 (PC3): < 6.00; pIC50 (PLCPRF5): < 6.00; pIC50 (SW579): < 6.00; pIC50 (TOV112D): < 6.00; pIC50 [1]: < 6.00
2 | Cc1ccc(CO)cc1Nc1ncc(-c2ccc(-n3cccn3)cc2)o1 [Example 027, {4-Methyl-3-[5-(4-pyrazol-1-yl-phenyl)-oxazol-2-ylamino]-phenyl}-methanol] | < 6.00 | < 6.00 | < 6.00 | < 6.00 | < 6.00 | < 6.00 | < 6.00 | < 6.00 | < 6.00 | < 6.00 | < 6.00 | < 6.00 | < 6.00 | < 6.00 | < 6.00 | < 6.00 | < 6.00 | < 6.00 | < 6.00 | < 6.00 | pIC50 (HUT78): < 6.00; pIC50 (KARPAS299): < 6.00; pIC50 (REC1): < 6.00; pIC50 (PC3): < 6.00; pIC50 (PLCPRF5): < 6.00; pIC50 (SW579): < 6.00; pIC50 (TOV112D): < 6.00; pIC50 [1]: < 6.00
3 | CCOCc1ccc(C)c(Nc2ncc(-c3ccc(-c4nccs4)cc3)o2)c1 [Example 038, (5-Ethoxymethyl-2-methyl-phenyl)-[5-(4-thiazol-2-yl-phenyl)-oxazol-2-yl]-amine] | 6.30 to 7.00 | 6.30 to 7.00 | < 6.00 | < 6.00 | < 6.00 | < 6.00 | < 6.00 | < 6.00 | < 6.00 | < 6.00 | < 6.00 | < 6.00 | < 6.00 | < 6.00 | 6.00 to 6.30 | < 6.00 | < 6.00 | < 6.00 | < 6.00 | < 6.00 | pIC50 (HUT78): < 6.00; pIC50 (KARPAS299): < 6.00; pIC50 (REC1): 6.30 to 7.00; pIC50 (PC3): < 6.00; pIC50 (PLCPRF5): < 6.00; pIC50 (SW579): < 6.00; pIC50 (TOV112D): < 6.00; pIC50 [1]: 6.00 to 6.30
4 | Cc1ccc(OCCN(C)C)cc1Nc1ncc(-c2ccc(-n3cccn3)cc2)o1 [Example 030, [5-(2-Dimethylamino-ethoxy)-2-methyl-phenyl]-[5-(4-pyrazol-1-yl-phenyl)-oxazol-2-yl]-amine] | < 6.00 | < 6.00 | < 6.00 | < 6.00 | < 6.00 | < 6.00 | < 6.00 | < 6.00 | < 6.00 | < 6.00 | < 6.00 | < 6.00 | < 6.00 | < 6.00 | < 6.00 | < 6.00 | < 6.00 | < 6.00 | < 6.00 | < 6.00 | pIC50 (HUT78): < 6.00; pIC50 (KARPAS299): < 6.00; pIC50 (REC1): < 6.00; pIC50 (PC3): < 6.00; pIC50 (PLCPRF5): < 6.00; pIC50 (SW579): < 6.00; pIC50 (TOV112D): < 6.00; pIC50 [1]: < 6.00
5 | Cc1ccc(COCCO)cc1Nc1ncc(-c2ccc(-n3cccn3)cc2)o1 [Example 026, 2-{4-Methyl-3-[5-(4-pyrazol-1-yl-phenyl)-oxazol-2-ylamino]-benzyloxy}-ethanol] | < 6.00 | < 6.00 | < 6.00 | < 6.00 | < 6.00 | < 6.00 | < 6.00 | < 6.00 | < 6.00 | < 6.00 | < 6.00 | < 6.00 | < 6.00 | < 6.00 | < 6.00 | < 6.00 | < 6.00 | < 6.00 | < 6.00 | < 6.00 | pIC50 (HUT78): < 6.00; pIC50 (KARPAS299): < 6.00; pIC50 (REC1): < 6.00; pIC50 (PC3): < 6.00; pIC50 (PLCPRF5): < 6.00; pIC50 (SW579): < 6.00; pIC50 (TOV112D): < 6.00; pIC50 [1]: < 6.00
6 | CCOCc1ccc(C)c(Nc2ncc(-c3ccc(N4CCNC4=O)nc3)o2)c1 [Example 055, 1-(5-(2-((5-(ethoxymethyl)-2-methylphenyl)amino)oxazol-5-yl)pyridin-2-yl)imidazolidin-2-one] | ≥ 7.00 | ≥ 7.00 | < 6.00 | ≥ 7.00 | < 6.00 | < 6.00 | < 6.00 | < 6.00 | < 6.00 | ≥ 7.00 | < 6.00 | < 6.00 | < 6.00 | ≥ 7.00 | ≥ 7.00 | < 6.00 | 6.00 to 6.30 | < 6.00 | < 6.00 | < 6.00 | pIC50 (PC3): ≥ 7.00; pIC50 (PLCPRF5): < 6.00; pIC50 (SW579): ≥ 7.00; pIC50 (TOV112D): ≥ 7.00; pIC50 [1]: ≥ 7.00
7 | CCOCc1ccc(C)c(Nc2ncc(-c3ccc(-n4nccc4C)cc3)o2)c1 [Example 041, (5-Ethoxymethyl-2-methyl-phenyl)-{5-[4-(5-methyl-pyrazol-1-yl)-phenyl]-oxazol-2-yl}-amine] | 6.00 to 6.30 | 6.00 to 6.30 | < 6.00 | < 6.00 | < 6.00 | < 6.00 | < 6.00 | < 6.00 | < 6.00 | < 6.00 | < 6.00 | < 6.00 | < 6.00 | < 6.00 | < 6.00 | < 6.00 | < 6.00 | < 6.00 | < 6.00 | < 6.00 | pIC50 (PC3): < 6.00; pIC50 (PLCPRF5): < 6.00; pIC50 (SW579): < 6.00; pIC50 (TOV112D): 6.30 to 7.00; pIC50 [1]: 6.30 to 7.00
